Columns and labels:
[1] = system: Heart; assay: Biodistribution in NMRI mouse heart at 1.1 to 2.6 MBq, iv after 5 mins by gamma counting; type: ADME, organism-based; conditions: in vivo
[2] = system: Brain; assay: Biodistribution in NMRI mouse brain at 1.1 to 2.6 MBq, iv after 5 mins by gamma counting; type: ADME, organism-based; conditions: in vivo
[3] = system: Lung; assay: Biodistribution in NMRI mouse lung at 1.1 to 2.6 MBq, iv after 5 mins by gamma counting; type: ADME, organism-based; conditions: in vivo
[4] = system: Liver; assay: Biodistribution in NMRI mouse liver at 1.1 to 2.6 MBq, iv after 5 mins by gamma counting; type: ADME, organism-based; conditions: in vivo
[5] = system: Kidney; assay: Biodistribution in NMRI mouse kidney at 1.1 to 2.6 MBq, iv after 5 mins by gamma counting; type: ADME, organism-based; conditions: in vivo
[6] = system: Spleen; assay: Biodistribution in NMRI mouse spleen at 1.1 to 2.6 MBq, iv after 5 mins by gamma counting; type: ADME, organism-based; conditions: in vivo
[7] = system: Intestine; assay: Biodistribution in NMRI mouse intestine at 1.1 to 2.6 MBq, iv after 5 mins by gamma counting; type: ADME, organism-based; conditions: in vivo
[8] = system: Pancreas; assay: Biodistribution in NMRI mouse pancreas at 1.1 to 2.6 MBq, iv after 5 mins by gamma counting; type: ADME, organism-based; conditions: in vivo
[9] = system: Bone; assay: Biodistribution in NMRI mouse bone at 1.1 to 2.6 MBq, iv after 5 mins by gamma counting; type: ADME, organism-based, Bone element; conditions: in vivo
[10] = system: Blood; assay: Biodistribution in NMRI mouse blood at 1.1 to 2.6 MBq, iv after 5 mins by gamma counting; type: ADME, organism-based; conditions: in vivo
[11] = system: Heart; assay: Biodistribution in NMRI mouse heart at 1.1 to 2.6 MBq, iv after 10 mins by gamma counting; type: ADME, organism-based; conditions: in vivo
[12] = system: Brain; assay: Biodistribution in NMRI mouse brain at 1.1 to 2.6 MBq, iv after 10 mins by gamma counting; type: ADME, organism-based; conditions: in vivo
[13] = system: Lung; assay: Biodistribution in NMRI mouse lung at 1.1 to 2.6 MBq, iv after 10 mins by gamma counting; type: ADME, organism-based; conditions: in vivo
[14] = system: Liver; assay: Biodistribution in NMRI mouse liver at 1.1 to 2.6 MBq, iv after 10 mins by gamma counting; type: ADME, organism-based; conditions: in vivo
[15] = system: Kidney; assay: Biodistribution in NMRI mouse kidney at 1.1 to 2.6 MBq, iv after 10 mins by gamma counting; type: ADME, organism-based; conditions: in vivo
[16] = system: Spleen; assay: Biodistribution in NMRI mouse spleen at 1.1 to 2.6 MBq, iv after 10 mins by gamma counting; type: ADME, organism-based; conditions: in vivo
[17] = system: Intestine; assay: Biodistribution in NMRI mouse intestine at 1.1 to 2.6 MBq, iv after 10 mins by gamma counting; type: ADME, organism-based; conditions: in vivo
[18] = system: Pancreas; assay: Biodistribution in NMRI mouse pancreas at 1.1 to 2.6 MBq, iv after 10 mins by gamma counting; type: ADME, organism-based; conditions: in vivo
[19] = system: Bone; assay: Biodistribution in NMRI mouse bone at 1.1 to 2.6 MBq, iv after 10 mins by gamma counting; type: ADME, organism-based, Bone element; conditions: in vivo
[20] = system: Blood; assay: Biodistribution in NMRI mouse blood at 1.1 to 2.6 MBq, iv after 10 mins by gamma counting; type: ADME, organism-based; conditions: in vivo
[21] = system: Heart; assay: Biodistribution in NMRI mouse heart at 1.1 to 2.6 MBq, iv after 15 mins by gamma counting; type: ADME, organism-based; conditions: in vivo, 0.25 h
[22] = system: Brain; assay: Biodistribution in NMRI mouse brain at 1.1 to 2.6 MBq, iv after 15 mins by gamma counting; type: ADME, organism-based; conditions: in vivo, 0.25 h
[23] = system: Lung; assay: Biodistribution in NMRI mouse lung at 1.1 to 2.6 MBq, iv after 15 mins by gamma counting; type: ADME, organism-based; conditions: in vivo, 0.25 h
[24] = system: Liver; assay: Biodistribution in NMRI mouse liver at 1.1 to 2.6 MBq, iv after 15 mins by gamma counting; type: ADME, organism-based; conditions: in vivo, 0.25 h
[25] = system: Kidney; assay: Biodistribution in NMRI mouse kidney at 1.1 to 2.6 MBq, iv after 15 mins by gamma counting; type: ADME, organism-based; conditions: in vivo, 0.25 h
[26] = system: Spleen; assay: Biodistribution in NMRI mouse spleen at 1.1 to 2.6 MBq, iv after 15 mins by gamma counting; type: ADME, organism-based; conditions: in vivo, 0.25 h
[27] = system: Intestine; assay: Biodistribution in NMRI mouse intestine at 1.1 to 2.6 MBq, iv after 15 mins by gamma counting; type: ADME, organism-based; conditions: in vivo, 0.25 h
[28] = system: Pancreas; assay: Biodistribution in NMRI mouse pancreas at 1.1 to 2.6 MBq, iv after 15 mins by gamma counting; type: ADME, organism-based; conditions: in vivo, 0.25 h
[29] = system: Bone; assay: Biodistribution in NMRI mouse bone at 1.1 to 2.6 MBq, iv after 15 mins by gamma counting; type: ADME, organism-based, Bone element; conditions: in vivo, 0.25 h
[30] = system: Blood; assay: Biodistribution in NMRI mouse blood at 1.1 to 2.6 MBq, iv after 15 mins by gamma counting; type: ADME, organism-based; conditions: in vivo, 0.25 h
[31] = system: Heart; assay: Biodistribution in NMRI mouse heart at 1.1 to 2.6 MBq, iv after 30 mins by gamma counting; type: ADME, organism-based; conditions: in vivo, 0.5 h
[32] = system: Brain; assay: Biodistribution in NMRI mouse brain at 1.1 to 2.6 MBq, iv after 30 mins by gamma counting; type: ADME, organism-based; conditions: in vivo, 0.5 h
[33] = system: Lung; assay: Biodistribution in NMRI mouse lung at 1.1 to 2.6 MBq, iv after 30 mins by gamma counting; type: ADME, organism-based; conditions: in vivo, 0.5 h
[34] = system: Liver; assay: Biodistribution in NMRI mouse liver at 1.1 to 2.6 MBq, iv after 30 mins by gamma counting; type: ADME, organism-based; conditions: in vivo, 0.5 h
[35] = system: Kidney; assay: Biodistribution in NMRI mouse kidney at 1.1 to 2.6 MBq, iv after 30 mins by gamma counting; type: ADME, organism-based; conditions: in vivo, 0.5 h
[36] = system: Spleen; assay: Biodistribution in NMRI mouse spleen at 1.1 to 2.6 MBq, iv after 30 mins by gamma counting; type: ADME, organism-based; conditions: in vivo, 0.5 h
[37] = system: Intestine; assay: Biodistribution in NMRI mouse intestine at 1.1 to 2.6 MBq, iv after 30 mins by gamma counting; type: ADME, organism-based; conditions: in vivo, 0.5 h
[38] = system: Pancreas; assay: Biodistribution in NMRI mouse pancreas at 1.1 to 2.6 MBq, iv after 30 mins by gamma counting; type: ADME, organism-based; conditions: in vivo, 0.5 h
[39] = system: Bone; assay: Biodistribution in NMRI mouse bone at 1.1 to 2.6 MBq, iv after 30 mins by gamma counting; type: ADME, organism-based, Bone element; conditions: in vivo, 0.5 h
[40] = system: Blood; assay: Biodistribution in NMRI mouse blood at 1.1 to 2.6 MBq, iv after 30 mins by gamma counting; type: ADME, organism-based; conditions: in vivo, 0.5 h
[41] = system: Serum; assay: Metabolic stability in NMRI mouse serum assessed as remaining radioactivity at 1.1 to 2.6 MBq, iv by TLC analysis; type: ADME, organism-based; conditions: in vivo
[42] = system: Brain; assay: Drug metabolism in NMRI mouse brain at […], iv measured 10 mins post injection; type: ADME, organism-based; conditions: in vivo
[43] = Chemical stability of the compound on silica gel on TLC plate assessed as half life; type: physicochemical
[44] = Chemical stability of the compound on […] oxide gel on TLC plate assessed as half life; type: physicochemical

Which Drug uptake [1] does the source give for `[18F]c1ccc(CN2CCN(c3ccc4c(c3)OCCO4)CC2)cn1` here?
The Drug uptake was 1.8 % ID/g.

What about the Drug uptake [2] of the same molecule?
The Drug uptake was 4.93 % ID/g.

And the Drug uptake [3]?
The Drug uptake was 12.99 % ID/g.

And the Drug uptake [4]?
Its Drug uptake is 4.13 % ID/g.

And the Drug uptake [5]?
Its Drug uptake is 8.23 % ID/g.

What about the Drug uptake [6] of the same molecule?
Its Drug uptake is 4.42 % ID/g.

And the Drug uptake [7]?
The Drug uptake was 2.16 % ID/g.

What about the Drug uptake [8] of the same molecule?
Its Drug uptake is 8.36 % ID/g.

What about the Drug uptake [9] of the same molecule?
The Drug uptake was 2.03 % ID/g.

And the Drug uptake [10]?
The Drug uptake was 1.62 % ID/g.

And the Drug uptake [11]?
Its Drug uptake is 0.52 % ID/g.

And the Drug uptake [12]?
Its Drug uptake is 2.85 % ID/g.

What about the Drug uptake [13] of the same molecule?
Its Drug uptake is 4.84 % ID/g.

And the Drug uptake [14]?
Its Drug uptake is 6.78 % ID/g.

And the Drug uptake [15]?
Its Drug uptake is 5.86 % ID/g.

And the Drug uptake [16]?
Its Drug uptake is 3.6 % ID/g.

And the Drug uptake [17]?
The Drug uptake was 2.68 % ID/g.

What about the Drug uptake [18] of the same molecule?
Its Drug uptake is 11.1 % ID/g.

What about the Drug uptake [19] of the same molecule?
Its Drug uptake is 2.54 % ID/g.

What about the Drug uptake [20] of the same molecule?
Its Drug uptake is 1.29 % ID/g.

And the Drug uptake [21]?
The Drug uptake was 0.58 % ID/g.

And the Drug uptake [22]?
The Drug uptake was 2.27 % ID/g.

What about the Drug uptake [23] of the same molecule?
Its Drug uptake is 4.79 % ID/g.

What about the Drug uptake [24] of the same molecule?
The Drug uptake was 5.67 % ID/g.

And the Drug uptake [25]?
Its Drug uptake is 4.67 % ID/g.

And the Drug uptake [26]?
The Drug uptake was 3.19 % ID/g.

And the Drug uptake [27]?
The Drug uptake was 2.51 % ID/g.

What about the Drug uptake [28] of the same molecule?
Its Drug uptake is 6.88 % ID/g.

What about the Drug uptake [29] of the same molecule?
The Drug uptake was 2.7 % ID/g.

And the Drug uptake [30]?
The Drug uptake was 1.23 % ID/g.

And the Drug uptake [31]?
Its Drug uptake is 1.13 % ID/g.

And the Drug uptake [32]?
Its Drug uptake is 1.47 % ID/g.

What about the Drug uptake [33] of the same molecule?
The Drug uptake was 2.68 % ID/g.

And the Drug uptake [34]?
Its Drug uptake is 7.79 % ID/g.

And the Drug uptake [35]?
Its Drug uptake is 6.03 % ID/g.

What about the Drug uptake [36] of the same molecule?
The Drug uptake was 3.13 % ID/g.

And the Drug uptake [37]?
Its Drug uptake is 4.47 % ID/g.

And the Drug uptake [38]?
Its Drug uptake is 7.43 % ID/g.

And the Drug uptake [39]?
Its Drug uptake is 0.93 % ID/g.

What about the Drug uptake [40] of the same molecule?
The Drug uptake was 0.53 % ID/g.

And the Stability [41]?
The Stability was > 98%.

What about the Drug metabolism [42] of the same molecule?
Its Drug metabolism is “Active”.

And the half-life [43]?
Its half-life is 15 min.

What about the half-life [44] of the same molecule?
Its half-life is 50 min.

— ChEMBL document CHEMBL1921774, “Evaluation of 18F-labeled benzodioxine piperazine-based dopamine D4 receptor ligands: lipophilicity as a determinate of nonspecific binding” (J Med Chem, 2011)
